Source: publication PMC12333015, “Profiling the Impact of mGlu7/Elfn1 Protein Interactions on the Pharmacology of mGlu7 Allosteric Modulators” (ACS Chemical Neuroscience, 2025)

Biological target: T1, mGlu7/Elfn1 (Rattus norvegicus, UniProt P35400)
T1 construct: expressed in transfected cells; host or cells: HEK293A mGlu7/GIRK cells cocultured with HEK293A polyclonal cells stably expressing Elfn1-Myc (pcDNA3)
Assay: Thallium flux assay, mGlu7/GIRK HEK293 cells cocultured with Elfn1-expressing cells
Type: cell-based, mouse Elfn1
Settings: for EC50: L-AP4 pEC50 ± SEM, Elfn1, DMSO vehicle
Source text: We began our evaluation of mGlu7 ligands in the presence and absence of Elfn1 by using a coculture system as previously described , with several modifications (Figure ). Cells expressing rat mGlu7 and coexpressing G protein inwardly rectifying potassium (GIRK) channels 1 and 2 were cocultured with cells expressing either an empty pcDNA3 vector control or a plasmid containing Elfn1 in the pcDNA3 backbone. We then evaluated the activity of the orthosteric agonist L-AP4 and measured effects on maximal response and pEC50. All responses were normalized to the maximal effect of L-AP4 in the presence of the pcDNA3 control plasmid.
2 Assay design and workflow. (Left panel) Cells expressing rat mGlu7/GIRK (pink) were cocultured with pcDNA3 (blue) or Elfn1 (purple). […] (Right panel) The effect on the concentration–response curve in the presence (purple) or absence (blue) of Elfn1 can be seen by a change in efficacy, potency, and/or basal response.
HEK293A polyclonal cells stably expressing either Elfn1 or empty vector were passaged in media (Dulbecco’s modified Eagle medium (DMEM), supplemented with 10% fetal bovine serum (FBS), 20 mM N-(2-hydroxyethyl)-piperazine-N′-ethanesulfonic acid (HEPES), 1 mM Na pyruvate, 2 mM Glutamax, 0.1 mM nonessential amino acids, 1× antibiotic/antimycotic) under G418 (700 μg/mL) selection to maintain expression.
HEK293A cells stably expressing mouse Elfn1 or pcDNA3 were maintained in growth medium containing 90% Dulbecco’s Modified Eagle Media (DMEM), 10% fetal bovine serum (FBS), 100 units/mL penicillin/streptomycin, 20 mM HEPES, 1 mM sodium pyruvate, 2 mM L-glutamine, 1× nonessential amino acids, and 700 μg/mL G418 sulfate. HEK mGlu7/GIRK cells were maintained in a growth medium with 90% DMEM/F12, 10% dialyzed FBS, 100 units/mL penicillin/streptomycin, 20 mM HEPES, 1 mM sodium pyruvate, 2 mM L-glutamine, 1× nonessential amino acids, 700 μg/mL G418 sulfate, and 600 ng/mL puromycin. All cell culture reagents were purchased from Invitrogen (Carlsbad, CA).
Thallium flux assays were performed as previously described. A mixture of HEK293A mGlu7/GIRK cells and pcDNA3 or Elfn1-expressing HEK293A cells (5000/15,000 cells/20 μL/well for agonist and PAM experiments; 7500/15,000 cells/20 μL/well for NAM experiments) was seeded in 384-well, amine-coated assay plates (Greiner Bio-One, Monroe, NC). Cells were incubated overnight in a humidified 5% CO2 cell culture incubator at 37 °C. […] Following a 1 h incubation at room temperature, the dye loading solution was replaced with 20 μL/well assay buffer and the plates were loaded into a Hamamatsu FDSS 7000 (Bridgewater, NJ). Data were acquired at 1 Hz (excitation 470 ± 20 nm, emission 540 ± 30 nm) for 10 s, followed by the addition of 20 μL/well of 10 μM NAM/PAM/DMSO, followed by an additional 4 min of data collection. […] Thallium flux data were analyzed by first dividing each point in each wave by the first point in that wave and then subtracting the average of the vehicle control response. The slopes of these vehicle control-subtracted waves were calculated over ten data points beginning 2 s after thallium stimulus addition and fit to a three-parameter logistic equation in GraphPad Prism (La Jolla, CA). In most cases, the final data were normalized to the response of the mGlu7/pcDNA3 with vehicle and 5 mM L-AP4 unless otherwise noted. Potency (pEC50) and maximum responses (E max) induced by compounds were determined using a four-parameter logistical equation in Prism.

T1 sequence (P35400 35-915): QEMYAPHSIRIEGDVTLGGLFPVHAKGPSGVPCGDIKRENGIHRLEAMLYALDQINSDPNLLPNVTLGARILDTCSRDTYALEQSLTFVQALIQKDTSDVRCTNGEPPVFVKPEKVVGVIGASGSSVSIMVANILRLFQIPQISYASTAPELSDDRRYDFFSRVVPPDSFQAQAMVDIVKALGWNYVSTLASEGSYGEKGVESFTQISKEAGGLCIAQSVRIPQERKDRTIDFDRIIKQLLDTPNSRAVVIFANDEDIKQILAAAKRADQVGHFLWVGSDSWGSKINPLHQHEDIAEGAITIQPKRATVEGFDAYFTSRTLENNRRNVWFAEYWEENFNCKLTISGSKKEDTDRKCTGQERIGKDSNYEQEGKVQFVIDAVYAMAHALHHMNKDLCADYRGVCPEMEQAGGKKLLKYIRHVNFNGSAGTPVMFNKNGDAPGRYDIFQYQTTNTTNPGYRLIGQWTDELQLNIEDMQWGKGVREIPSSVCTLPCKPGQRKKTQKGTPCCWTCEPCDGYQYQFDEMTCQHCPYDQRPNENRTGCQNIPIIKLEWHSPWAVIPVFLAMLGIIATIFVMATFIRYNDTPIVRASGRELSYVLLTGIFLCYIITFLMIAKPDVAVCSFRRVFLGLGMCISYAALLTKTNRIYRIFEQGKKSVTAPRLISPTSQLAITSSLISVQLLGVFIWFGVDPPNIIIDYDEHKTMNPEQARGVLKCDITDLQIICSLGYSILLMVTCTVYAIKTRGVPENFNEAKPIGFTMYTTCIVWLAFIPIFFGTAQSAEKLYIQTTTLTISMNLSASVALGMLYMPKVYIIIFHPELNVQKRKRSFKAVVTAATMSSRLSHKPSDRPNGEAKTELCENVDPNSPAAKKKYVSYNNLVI
T1 sequence (Q8C8T7 26-828 partner): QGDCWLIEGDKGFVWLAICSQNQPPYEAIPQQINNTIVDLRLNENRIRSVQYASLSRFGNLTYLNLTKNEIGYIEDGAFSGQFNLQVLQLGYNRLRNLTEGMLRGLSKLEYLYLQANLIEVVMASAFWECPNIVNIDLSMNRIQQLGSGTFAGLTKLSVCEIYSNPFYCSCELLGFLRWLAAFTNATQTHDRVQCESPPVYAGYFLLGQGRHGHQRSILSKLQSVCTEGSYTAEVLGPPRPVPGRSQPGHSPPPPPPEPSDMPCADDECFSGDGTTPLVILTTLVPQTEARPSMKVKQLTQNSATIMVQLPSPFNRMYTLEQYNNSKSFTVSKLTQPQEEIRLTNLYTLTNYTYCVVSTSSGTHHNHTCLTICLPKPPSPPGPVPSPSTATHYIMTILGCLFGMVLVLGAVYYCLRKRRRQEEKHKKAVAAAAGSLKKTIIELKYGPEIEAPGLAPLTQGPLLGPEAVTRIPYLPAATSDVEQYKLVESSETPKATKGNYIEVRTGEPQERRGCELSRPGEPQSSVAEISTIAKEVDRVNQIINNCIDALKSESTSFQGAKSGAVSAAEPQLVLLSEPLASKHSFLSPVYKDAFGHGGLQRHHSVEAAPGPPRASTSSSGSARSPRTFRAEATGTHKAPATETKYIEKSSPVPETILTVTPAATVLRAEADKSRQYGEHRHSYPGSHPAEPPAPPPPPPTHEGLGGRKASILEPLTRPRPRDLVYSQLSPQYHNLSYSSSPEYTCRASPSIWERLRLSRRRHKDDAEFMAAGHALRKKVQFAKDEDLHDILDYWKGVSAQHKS

## N[C@@H](CCP(=O)(O)O)C(=O)O [L-AP4, L-2-amino-4-phosphonobutyric acid, reference compound]
Agonist alone (DMSO row of Table 2)
  EC50: 324 µM
Agonist alone (DMSO row of Table S1)
  EC50: 200 µM
Eight experiments, p < 0.001
  maximal response to L-AP4 with Elfn1 versus pcDNA3: significantly reduced
Eight experiments, p < 0.01
  pEC50 of L-AP4 with Elfn1 versus pcDNA3: significantly reduced
